Data taken from article PMC9635925, “Biological screening of a unique drug library targeting MRGPRX2” (Frontiers in Immunology, 2022).
Residue numbers refer to the chain shown, from its start. Counter-ions that a name gives are not always drawn.

Tests used:
[1] = test system: MRGPRX2-deficient LAD2 cells; assay: β-hexosaminidase release in MRGPRX2-deficient LAD2 cells (CRISPR/Cas9); assay type: cell-based, human; details: two-way ANOVA, P< 0.0001
Method: (§1) The human mast cell line LAD2 (Laboratory of Allergic Diseases-2) was obtained from Dean Metcalfe, MD (National Institute of Allergy and Infectious Diseases, National Institutes of Health, Bethesda, MD). […] We included two negative and two positive controls for the validation experiments in LAD2 cells. […] Additionally, vehicle control (without any drugs) was also included as the negative control. Drugs were dissolved in PBS (vehicle) and six concentrations were tested for each drug; the known MRGPRX2 agonist C48/80 (10 μg/mL) and Tween 20 (1%), which is a known mast cell activator via MRGPRX2 independent mechanism, were used as positive controls. Two-way ANOVA with the Sidak multiple comparisons test was used for statistical analysis (n=6).
(§2) We further investigated whether these newly discovered candidate drugs can serve as agonists for MRGPRX2-dependent activation of MCs.

[2] = biological target: T1, MRGPRX2-WT (wild-type MRGPRX2 receptor) (Homo sapiens, UniProt Q96LB1); assay: Primary HTS, Ca2+ mobilization (fluorescence ratio, B-score) in HEK293-Gα15 cells stably expressing wild-type MRGPRX2; assay type: cell-based; details: 10 μM compound
T1 construct: expressed in transfected cells
T1 sequence (Q96LB1 1-330): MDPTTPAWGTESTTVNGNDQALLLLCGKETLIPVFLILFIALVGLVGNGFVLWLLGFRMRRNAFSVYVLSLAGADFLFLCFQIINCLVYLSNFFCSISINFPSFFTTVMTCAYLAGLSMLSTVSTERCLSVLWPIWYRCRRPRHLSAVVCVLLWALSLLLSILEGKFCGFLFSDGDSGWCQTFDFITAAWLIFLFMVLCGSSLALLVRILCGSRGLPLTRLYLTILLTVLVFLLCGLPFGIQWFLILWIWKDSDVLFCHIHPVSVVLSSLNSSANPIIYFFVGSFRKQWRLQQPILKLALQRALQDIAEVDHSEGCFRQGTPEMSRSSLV

[3] = biological target: T2, MRGPRX2-MUT (MRGPRX2 N62S mutation) (Homo sapiens, UniProt Q96LB1, N62S); assay: Primary HTS, Ca2+ mobilization (fluorescence ratio, B-score) in HEK293-Gα15 cells stably expressing the MRGPRX2 N62S mutation; assay type: cell-based; details: for B-scores (MUT): 10 μM compound, MRGPRX2-MUT (N62S) cells; for Change of B-scores (%): 10 μM
T2 construct: expressed in transfected cells
T2 sequence (Q96LB1 1-330 N62S): T1 sequence (Q96LB1 1-330) with N62S

LAD2 cells = assay: β-hexosaminidase release (degranulation) in human mast cell line LAD2; assay type: cell-based
Method: as §1, §2

[4] = MRGPRX2-MUT in comparison to MRGPRX2-WT cells, Supplementary Table 1
[5] = MRGPRX2-MUT in comparison to MRGPRX2-WT cells, Table 1
[6] = MRGPRX2-MUT versus MRGPRX2-WT cells, Supplementary Table 2

Compound	B-scores (WT) ([2]; Supplementary Table 1)	B-scores (WT) ([2]; Supplementary Table 2)	B-scores (WT) ([2]; Table 1)	B-scores (MUT) ([3]; Supplementary Table 1)	B-scores (MUT) ([3]; Supplementary Table 2)	B-scores (MUT) ([3]; Table 1)	Change of B-scores (%) [3, 4] [%]	Change of B-scores (%) [3, 5] [%]	Change of B-scores (%) [3, 6] [%]	degranulation (β-hexosaminidase release) in LAD2 cells lacking MRGPRX2 [1]	β-hexosaminidase release (LAD2 cells; at 500 μM) [%]	β-hexosaminidase release (LAD2 cells; at 125 μM) [%]
CN(C)CCC(c1ccc(Br)cc1)c1ccccn1 (centres unmarked) [Brompheniramine Maleate]	41.41	41.41	41.41	1.21	1.21	1.21	-97.07	-97.07	-97.07	decreased to the level of vehicle controls	56.43	
Cc1ccc(NC(=O)c2ccc(CN3CCN(C)CC3)cc2)cc1Nc1nccc(-c2cccnc2)n1 [Imatinib Mesylate]										decreased to the level of vehicle controls		58.42
CCn1cc(C(=O)O)c(=O)c2cc(F)c(N3CCN(C)CC3)cc21.CS(=O)(=O)O [Pefloxacine Mesylate]		7.86			-0.79				-110.02			
N=C(N)c1ccc(OCCCCCOc2ccc(C(=N)N)cc2)cc1 [Pentamidine Isethionate]	37.48			0.43			-98.84					
N=C(N)c1ccc(OCCCCCOc2ccc(C(=N)N)cc2)cc1 [Pentamidine]	24.12			8.70			-63.92					
CN1CCC(=C2c3ccccc3CCc3sccc32)CC1.O=C(O)CC(O)C(=O)O [Pizotyline Malate]	39.73			1.29			-96.75					
CN(C)CCCN1c2ccccc2Sc2ccccc21 [Promazine Hydrochloride]	23.47	23.47	23.47	8.13	8.13	8.13	-65.37	-65.37	-65.37			
CNCCCC1c2ccccc2C=Cc2ccccc21 [Protriptyline Hydrochloride]	24.43		24.43	3.59		3.59	-85.30	-85.30				
COc1ccc(CN(CCN(C)C)c2ccccn2)cc1 [Pyrilamine]		13.36			0.23				-98.24			
CCOC(=O)[C@H](CCc1ccccc1)N[C@@H](C)C(=O)N1[C@H](C(=O)O)C[C@@H]2CCC[C@@H]21 [Ramipril]	22.18			31.66			42.73					
CO[C@H]1/C=C/O[C@@]2(C)Oc3c(C)c(O)c4c(O)c(c(/C=N/N5CCN(C)CC5)c(O)c4c3C2=O)NC(=O)/C(C)=C\C=C\[C@H](C)[C@H](O)[C@@H](C)[C@@H](O)[C@@H](C)[C@H](OC(C)=O)[C@@H]1C [Rifampin]	23.94		23.94	0.37		0.37	-98.45	-98.45				
C[CH2][Hg][S]c1ccccc1C(=O)[O-].[Na+] [Thimerosal]	18.55			0.33			-98.25					
COc1ccc(CCN(C)CCCC(C#N)(c2ccc(OC)c(OC)c2)C(C)C)cc1OC (centres unmarked) [Verapamil Hydrochloride]		9.68			1.41				-85.46			
COc1ccc(CCN(C)CCCC(C#N)(c2ccc(OC)c(OC)c2)C(C)C)cc1OC (centres unmarked) [Verapamil]		5.44			-1.44				-126.44			
Bacitracin A	20.22		20.22			-0.17				decreased to the level of vehicle controls	61.94	
Buserelin	20.46		20.46	5.73		5.73	-71.99	-71.99				
Corticotropin A (SYSMEHFRWGKPVGKKRRPVKVYPNGAEDESAEAFPLEF; Corticotropin; UniProt P01189 138-176, looked up) [Adrenocorticotropic hormone (ACTH)]	37.20			15.06			-59.51					

Continued, in another order:

B-scores (WT) ([2]; Supplementary Table 1)	B-scores (WT) ([2]; Supplementary Table 2)	B-scores (WT) ([2]; Table 1)	B-scores (MUT) ([3]; Supplementary Table 1)	B-scores (MUT) ([3]; Supplementary Table 2)	B-scores (MUT) ([3]; Table 1)	Change of B-scores (%) [3, 4] [%]	Change of B-scores (%) [3, 5] [%]	Change of B-scores (%) [3, 6] [%]	Compound	degranulation (β-hexosaminidase release) in LAD2 cells lacking MRGPRX2 [1]	β-hexosaminidase release (LAD2 cells; at 500 μM) [%]	β-hexosaminidase release (LAD2 cells; at 125 μM) [%]
19.85		19.85			-0.15	-100.76	-100.76		CN1CCN(c2c(F)cc3c(=O)c(C(=O)O)cn4c3c2SCC4)CC1.Cl [Rufloxacin Hydrochloride]			
	13.61			0.36				-97.38	CC(C)(C)NCC(O)c1ccc(O)c(CO)c1 (centres unmarked) [Salbutamol]			
	15.97			0				-100	O=C(O)c1cn(-c2ccc(F)cc2)c2cc(N3CCNCC3)c(F)cc2c1=O [Sarafloxacin hydrochloride]			
	7.75			1.08				-86.07	CN1CCN(CCCN2c3ccccc3Sc3ccc(C(F)(F)F)cc32)CC1 [Stelazine]			
	15.97			1.91				-88.03	CC(C)(C)NCC(O)c1cc(O)cc(O)c1.CC(C)(C)NCC(O)c1cc(O)cc(O)c1.O=S(=O)(O)O (centres unmarked) [Terbutaline Hemisulfate]			
20.36		20.36	5.11		5.11	-74.90	-74.90		CN1CCN(CC/C=C2/c3ccccc3Sc3ccc(S(=O)(=O)N(C)C)cc32)CC1 [Thiothixene]			
33.23		33.23	1.69		1.69	-94.91	-94.91		COc1ccc(CN(CCN(C)C)c2ncccn2)cc1 [Thonzylamine Hydrochloride]			
	8.62			0.85				-90.15	CN(C)CCCN1c2ccccc2Sc2ccc(C(F)(F)F)cc21 [Triflupromazine Hydrochloride]			
27.11			19.11			-29.51			CC(CN(C)C)CN1c2ccccc2Sc2ccccc21.CC(CN(C)C)CN1c2ccccc2Sc2ccccc21.O=C(O)C(O)C(O)C(=O)O (centres unmarked) [Trimeprazine Tartrate]			
18.56			0.14			-99.27			COc1cc(C(=O)NCc2ccc(OCCN(C)C)cc2)cc(OC)c1OC [Trimethobenzamide Hydrochloride]			
23.09		23.09	3.48		3.48	-84.91	-84.91		CC(CN(C)C)CN1c2ccccc2CCc2ccccc21 (centres unmarked) [Trimipramine Maleate]			
20.71		20.71	0.68		0.68	-96.71	-96.71		Cc1ccc(/C(=C\CN2CCCC2)c2ccccn2)cc1.Cl [Triprolidine Hydrochloride]			
